Tested on: Thrombozytenaggregation
Experiment: Inhibition of collagen-induced platelet aggregation in platelet-rich plasma (turbidimetric method, aggregometer)
Assay type: cell-based, Human
Conditions: PRP; for Thrombozytenaggregation gehemmt: result in words, collagen-induced; for minimal effective concentration: Homo sapiens, Platelet, 37°C, aggregation triggered with Kollagensuspension, minimal concentration that inhibits aggregation, read-out: Hemmung der Thrombozytenaggregation minimal effektive Konzentration
From the text: Thrombozytenaggregationshemmung
Für die Bestimmung der thrombozytenaggregationshemmenden Wirkung wurde Blut von gesunden Spendern, die mindestens 14 Tage lang kein Medikament eingenommen hatten, verwendet. Das Blut wurde in 3,8 %-iger Natriumcitratlösung aufgenommen. Plättchenreiches Plasma (PRP) wurde durch 20 Minuten Zentrifugation bei 150 g und Raumtemperatur gewonnen (Jürgens/Beller: Klinische Methoden der Blutgerinnungsanalyse; Thieme-Verlag Stuttgart 1959). Die Plättchenaggregation wurde nach der turbidometrischen Methode (Born, G.V.R.: J. Physiol. 162, 67 (1962)) im Aggregometer bei 37°C bestimmt. Hierzu wurde PRP mit Prüfsubstanz bei 37°C inkubiert und anschließend die Aggregation durch Zugabe einer Kollagensuspension ausgelöst. Bestimmt wurde die minimale Konzentration einer Prüfsubstanz, die die Thrombozytenaggregation hemmte.
In diesem Test wird die Thrombozytenaggregation insbesondere durch die Verbindungen folgender Herstellungsbeispiele gehemmt: 1, 2, 9 und 15.

Row | Compound | Thrombozytenaggregation gehemmt | minimal effective concentration [µg/mL]
1 | CC(C)(C)c1n[nH]cc1-n1ccnc1 [Beispiel 1] | gehemmt | –
2 | Cn1cc(-n2ccnc2)c(C(C)(C)C)n1 [Beispiel 2, 3-tert.-Butyl-1-methyl-4-(imidazol-1-yl)-pyrazol] | gehemmt | –
3 | CC(C)(COc1ccc(Cl)cc1Cl)c1n[nH]cc1-n1ccnc1 [Beispiel 9] | gehemmt | –
4 | Cn1cc(-n2ccnc2)c(C(C)(C)COc2ccc(Cl)cc2)n1 [Beispiel 15] | gehemmt | 30
5 | c1c[nH]cn1 [Imidazol] | – | 30

From patent EP0115640A2, “Substituted 4-imidazolyl-pyrazoles, process for their preparation and medicaments containing them” (BAYER AG, priority 1983, dated 1984)
